Measurements taken from patent US10106535B2, “Histone deacetylase inhibitors and compositions and methods of use thereof” (CHDI Foundation, Inc., priority 2013, dated 2018).

Test system: cellular histone deacetylase enzymatic activity in Jurkat E6-1 cells
Experiment: Inhibition of cellular HDAC activity in Jurkat E6-1 cells, fluorogenic substrate Boc-Lys(Tfa)-AMC
Format: cell-based
Conditions: Homo sapiens, read-out: Cell IC50
Source text: Example 50: Analysis of Inhibition of Cellular HDAC Activity with Class IIa Histone Deacetylase (HDAC) Inhibitors
The potency of Class IIa Histone Deacetylase (HDAC) inhibitors is quantified by measuring the cellular histone deacetylase enzymatic activity using the fluorogenic substrate, Boc-Lys(Tfa)-AMC. After penetration in Jurkat E6-1 cells, the substrate is deacetylated to Boc-Lys-AMC. After cell lysis and cleavage by trypsin, the fluorophore AMC is released from the deacetylated substrate only. The fluorescence of the sample is directly related to the histone deacetylase activity in the sample.
Jurkat E6.1 cells are cultured according to standard cell culture protocols in Jurkat E6.1 Growth Media (RPMI without phenol red, 10% FBS, 10 mM HEPES, and 1 mM Sodium Pyruvate). Jurkat E6.1 cells are counted using a Coulter Counter and resuspended in Jurkat E6.1 growth media at a concentration of 75,000 cells/35 μl. 35 μl or 75,000 cells is seeded into Greiner microtitre assay plates. The plates are then incubated at 37° C. and 5% CO2 while other assay components are being prepared.
Serial dilutions of the HDAC inhibitors and control reference compound (1-(5-(3-((4-(1,3,4-oxadiazol-2-yl)phenoxy)methyl)-1,2,4-oxadiazol-5-yl)thiophen-2-yl)-2,2,2-trifluoroethanone) are made by first resuspending the lyophilized compound to a final concentration of 10 mM in 100% DMSO. Stocks of 70 μl aliquots of the 10 mM compound in DMSO are prepared and stored at −20° C. From one stock aliquot of each compound to be tested and the reference compound, a 16-point serial dilution is prepared according to Table 1 using a 125 μl 16-channel Matrix multi-channel pipette.
2 μl (200×) of each diluted solution and each control (full activity: 100% DMSO alone or full inhibition 1 mM) is stamped into V-bottom polypropylene 384-well compound plates using either the Bravo, Janus, or 12.5 μl 16-channel Matrix multi-channel pipette. Each well with the 200× compound solution is diluted 1:20 by the addition of 38 μl Jurkat assay buffer+DMSO (9.5% DMSO, RPMI without phenol red, 0.09% FBS, 9 mM Hepes, and 0.9 mM Sodium Pyruvate equilibrated to room temperature)
5× (500 μM) substrate is prepared just prior to the addition to the assay. The 5× substrate is prepared by diluting a 100 mM Boc-Lys(Tfa)-AMC in DMSO solution 1:200 by adding it drop-wise to Jurkat assay medium (RPMI without phenol red, 0.1% FBS, 10 mM Hepes, and 1 mM Sodium Pyruvate equilibrated to 37° C.) while vortexing at slow speed to prevent precipitation.
10 ml of 3× lysis buffer is prepared with 8.8 ml of 3× stock lysis buffer (50 mM Tris-HCl, pH 8.0, 137 mM NaCl, 2.7 mM KCl, 1 mM MgCl2, 1% Nonidet P40 Substitute equilibrated to room temperature) and 1.2 ml of 3 mg/ml Trypsin equilibrated to room temperature.
5 μl of each solution of 1:20 diluted compound from above is transferred to the Greiner microtitre assay plates with 75,000 cells/well using the Bravo. Cells are then incubated for 2 hours at 37° C. and 5% CO2. The assay is then started by adding 10 μl of 5× (500 μM) substrate to the assay plate using either the Bravo or 16-channel Matrix multi-channel pipette. The cells are then incubated for 3 hours at 37° C. and 5% CO2. Next, 25 μl of 3× lysis buffer is added to each well using either the 125 μl 16 channel pipette or the Bravo. The assay plate is then incubated overnight (15-16 hours) at 37° C. and 5% CO2. The following day, the plates are shaken on an orbital shaker for 1 minute at 900 rpm. Finally the top read fluorescence (Excitation: 355 nm, Emission: 460 nm) is measured using PerkinElmer EnVision.

Cc1c(F)cccc1[C@@]1(C(=O)NO)C=C(c2cncc(C(F)(F)F)c2)CC1 [Example 17, (S)-1-(3-fluoro-2-methylphenyl)-N-hydroxy-3-(5-(trifluoromethyl)pyridin-3-yl)cyclopent-2-enecarboxamide] showed an IC50 of 200 nM.

With COc1ncc(C2=C[C@](C(=O)NO)(c3cccc(F)c3C)CC2)cc1F [Example 23, (S)-1-(3-fluoro-2-methylphenyl)-3-(5-fluoro-6-methoxypyridin-3-yl)-N-hydroxycyclopent-2-enecarboxamide] the IC50 was 220 nM.

Work on Cc1c(F)cccc1[C@]1(C(=O)NO)C=C(c2ccccc2)CC1 [Example 1, (R)-1-(3-fluoro-2-methylphenyl)-N-hydroxy-3-phenylcyclopent-2-enecarboxamide] yielded an IC50 greater than 50000 nM.

Cc1c(F)cccc1[C@@]1(C(=O)NO)C=C(c2ccc3nc(C(F)(F)F)cnc3c2)CC1 [Example 20, (S)-1-(3-fluoro-2-methylphenyl)-N-hydroxy-3-(2-(trifluoromethyl)quinoxalin-6-yl)cyclopent-2-enecarboxamide] was tested, and the IC50 was 140 nM.

Work on Cc1ncccc1C1=C[C@](C(=O)NO)(c2cccc(F)c2C)CC1 [Example 37, (S)-1-(3-fluoro-2-methylphenyl)-N-hydroxy-3-(2-methylpyridin-3-yl)cyclopent-2-enecarboxamide] yielded an IC50 of 90 nM.

O=C(NO)C1(c2ccccc2)CC=CC1 [Example 30, N-hydroxy-1-phenyl-cyclopent-3-enecarboxamide] showed an IC50 greater than 50000 nM.

Molecule Cc1c(F)cccc1[C@@]1(C(=O)NO)C=C(c2ccc3cnn(C(F)F)c3c2)CC1 [Example 39, (S)-3-(1-(difluoromethyl)-1H-indazol-6-yl)-1-(3-fluoro-2-methylphenyl)-N-hydroxycyclopent-2-enecarboxamide] has an IC50 of 30 nM.

In the case of Cc1ccc(C2=C[C@](C(=O)NO)(c3cccc(F)c3C)CC2)cn1 [Example 25, (S)-1-(3-fluoro-2-methylphenyl)-N-hydroxy-3-(6-methylpyridin-3-yl)cyclopent-2-enecarboxamide], the IC50 is reported as 120 nM.

Cc1c(F)cccc1[C@@]1(C(=O)NO)C=C(c2cnccn2)CC1 [Example 8, (S)-1-(3-fluoro-2-methylphenyl)-N-hydroxy-3-(pyrazin-2-yl)cyclopent-2-ene carboxamide] was tested, and the IC50 was 15700 nM.

For O=C(NO)[C@@]1(c2ccccc2)C=C(c2ccccc2)CC1 [Example 34, (R)-N-hydroxy-1,3-diphenylcyclopent-2-enecarboxamide], the IC50 was greater than 50000 nM.

In the case of Cc1ccccc1C1=C[C@](C(=O)NO)(c2cccc(F)c2C)CC1 [Example 4, (S)-1-(3-fluoro-2-methyl-phenyl)-N-hydroxy-3-(o-tolyl)cyclopent-2-ene-1-carboxamide], the IC50 is reported as 360 nM.

O=C(NO)[C@]1(c2ccccc2)C=C(c2cncc(F)c2)CC1 [Example 35, (S)-3-(5-fluoropyridin-3-yl)-N-hydroxy-1-phenylcyclopent-2-enecarboxamide] showed an IC50 of 3100 nM.

O=C(NO)C1(c2ccccc2)CC=C(c2cncc(F)c2)CC1 (centres unmarked) [Example 43, 4-(5-fluoropyridin-3-yl)-N-hydroxy-1,2,3,6-tetrahydro-[1,1′-biphenyl]-1-carboxamide] showed an IC50 of 39000 nM.

Molecule Cc1c([C@@]2(C(=O)NO)C=C(c3ccc4cnn(C)c4c3)CC2)ccc(F)c1F [Example 42, (S)-1-(3,4-difluoro-2-methylphenyl)-N-hydroxy-3-(1-methyl-1H-indazol-6-yl)cyclopent-2-enecarboxamide] has an IC50 of 20 nM.

Cc1c(F)cccc1[C@@]1(C(=O)NO)C=C(c2cc3ccccc3s2)CC1 [Example 41, (S)-3-(benzo[b]thiophen-2-yl)-1-(3-fluoro-2-methylphenyl)-N-hydroxycyclopent-2-enecarboxamide] gave an IC50 of 40 nM.

For Cc1c(F)cccc1[C@@]1(C(=O)NO)C=C(c2cccc3cnsc23)CC1 [Example 29, (S)-3-(benzo[d]isothiazol-7-yl)-1-(3-fluoro-2-methylphenyl)-N-hydroxycyclopent-2-enecarboxamide], the IC50 was 200 nM.

In the case of Cc1c(F)cccc1C1(C(=O)NO)CC=C(c2cncc(F)c2)CC1 (centres unmarked) [Example 44, 3′-fluoro-4-(5-fluoropyridin-3-yl)-N-hydroxy-2′-methyl-1,2,3,6-tetrahydro-[1,1′-biphenyl]-1-carboxamide], the IC50 is reported as 670 nM.

For Cc1c(F)cccc1[C@@]1(C(=O)NO)C=C(C2CC2)CC1 [Example 32, (S)-3-cyclopropyl-1-(3-fluoro-2-methylphenyl)-N-hydroxycyclopent-2-enecarboxamide], the IC50 was 730 nM.

Work on Cc1c(F)cccc1[C@@]1(C(=O)NO)C=C(c2cnn(C(F)F)c2)CC1 [Example 18, (S)-3-(1-(difluoromethyl)-1H-pyrazol-4-yl)-1-(3-fluoro-2-methylphenyl)-N-hydroxycyclopent-2-enecarboxamide] yielded an IC50 of 160 nM.

In the case of Cc1c(F)cccc1[C@@]1(C(=O)NO)C=C(c2ccc(C(F)(F)F)nc2)CC1 [Example 16, (S)-1-(3-fluoro-2-methylphenyl)-N-hydroxy-3-(6-(trifluoromethyl)pyridin-3-yl)cyclopent-2-enecarboxamide], the IC50 is reported as 100 nM.

In the case of Cc1c(F)cccc1[C@@]1(C(=O)NO)C=C(c2ccnn2C)CC1 [Example 27, (S)-1-(3-fluoro-2-methylphenyl)-N-hydroxy-3-(1-methyl-1H-pyrazol-5-yl)cyclopent-2-enecarboxamide], the IC50 is reported as 330 nM.

Work on Cc1c(F)cccc1[C@@]1(C(=O)NO)C=C(c2ccc(F)cn2)CC1 [Example 15, (S)-1-(3-fluoro-2-methylphenyl)-3-(5-fluoropyridin-2-yl)-N-hydroxycyclopent-2-enecarboxamide] yielded an IC50 of 310 nM.

Work on Cc1c(F)cccc1[C@@]1(C(=O)NO)C=C(c2cc(F)cnc2C2CC2)CC1 [Example 19, (S)-3-(2-cyclopropyl-5-fluoropyridin-3-yl)-1-(3-fluoro-2-methylphenyl)-N-hydroxycyclopent-2-enecarboxamide] yielded an IC50 of 500 nM.

For O=C(NO)C1(c2ccccc2F)CC=CC1 [Example 31, 1-(2-fluorophenyl)-N-hydroxy-cyclopent-3-enecarboxamide], the IC50 was 44500 nM.

Work on Cc1c(F)cccc1[C@@]1(C(=O)NO)C=C(c2ccc3scnc3c2)CC1 [Example 40, (S)-3-(benzo[d]thiazol-5-yl)-1-(3-fluoro-2-methylphenyl)-N-hydroxycyclopent-2-enecarboxamide] yielded an IC50 of 50 nM.

Molecule Cc1c(F)cccc1[C@]1(C(=O)NO)C=C(c2cnccn2)CC1 [Example 7, (R)-1-(3-fluoro-2-methylphenyl)-N-hydroxy-3-(pyrazin-2-yl)cyclopent-2-ene carboxamide] has an IC50 greater than 50000 nM.

Cc1c(F)cccc1[C@@]1(C(=O)NO)C=C(c2cnn(CC(F)(F)F)c2)CC1 [Example 28, (S)-1-(3-fluoro-2-methylphenyl)-N-hydroxy-3-(1-(2,2,2-trifluoroethyl)-1H-pyrazol-4-yl)cyclopent-2-enecarboxamide] was tested, and the IC50 was 160 nM.

Cc1ncc(Cl)cc1C1=C[C@](C(=O)NO)(c2cccc(F)c2C)CC1 [Example 36, (S)-3-(5-chloro-2-methylpyridin-3-yl)-1-(3-fluoro-2-methylphenyl)-N-hydroxycyclopent-2-enecarboxamide] was tested, and the IC50 was 120 nM.

With Cc1c(F)cccc1[C@@]1(C(=O)NO)C=C(c2cncnc2)CC1 [Example 14, (S)-1-(3-fluoro-2-methylphenyl)-N-hydroxy-3-(pyrimidin-5-yl)cyclopent-2-enecarboxamide] the IC50 was 360 nM.
